Key:
MLL/AF9 AML cells = assay: MLL/AF9 syngeneic leukemia model in non-irradiated WT mice; assay type: in vivo, mouse
Method: PTH bone-anabolic treatment: mice were injected intraperitoneally (i.p.) with PTH (Bachem) at 80 μg/kg/day in PBS. Injections started 1 week before MLL/AF9 injection and continued along 2-3 more weeks until mice were harvest.
SB224289-SB9-(TOCRIS Cat #1221) treatment: mice were injected intraperitoneally (i.p.) daily with SB9 (5 mg/kg in 0.9% NaCl) 1 week after leukemia injection and for the duration of the experiment. Assuming a 20 g body weight (BW) and a 2 ml total blood volume per mouse—as well as an even distribution of the drug-systemic concentration of SB9 should be approximately 50 μg/ml. Based on the MW of SB9 (557.09), the final concentration—at equal distribution—in blood should be 8.97521e-05 M (≈90 μM).
(§1) Epacadostat (AdooQ Cat #A15554)-treatment: for the WT C57BL/6J mice, treatment started at the same time than MLL/AF9 cells were transplanted. For the patient-derived AML cells (PDX) transplanted into NSG mice, treatment started 8 weeks after transplant, at the same time than Ara-C and during 3 weeks. Mice were supplied with ad libitum epacadostat-supplemented diet (Research Diets Inc.) at 800 mg/kg (low-dose) or 1.6 g/kg (high-dose). For the PDX transplanted into NSGS mice, treatment started 3 weeks after transplant, by daily gavage at 300 mg/kg (InvivoChem Cat #: V0942, dissolved in 10% DMSO, 40% PEG 300 and 50% NaCl 0.9%) for 2 weeks.
All leukemia models were introduced by intravenous (i.v.) injection and transplanted into non-irradiated secondary recipient experimental animals. BALB/c mice were used for the WEHI-3B leukemia model (0.5×10^6/cells/mouse) and C57BL/6J mice for MLL/AF9-dsRed (0.2×10^6/cells/mouse). Leukemia progression was assessed by fluorescence (MLL/AF9 dsRed) using the IVIS-Spectrum Optical Imaging System (Caliper, Perkin Elmer). Mice were shaved to reduce light attenuation.

IDO1 [1] = assay: Circulating Kyn and Trp levels (ELISA) in WT mice on epacadostat diet; assay type: in vivo, mouse
Method: as §1
(§2) Quantification in serum from peripheral blood (mice) or BM plasma (patients) of Kyn and Trp was assessed by ELISA using independent kits (ImmunoSmol) as per manufacturer's instructions. The ratio between Kyn and Trp levels is shown. SAA3 in serum (murine SAA3 ELISA Kit Millipore) and SAA1 in patient BM plasma (Amyloid A1 DuoSet ELISA Kit (R&D) were assessed as per manufacturer's instructions.

[2] = Systemic toxicity observation in WT mice on epacadostat diet; assay type: in vivo; conditions: ad libitum diet 0.8 g/kg
Method: as §1

IDO1 [3] = assay: Epacadostat in vitro: kynurenine secretion and cell cycle progression; assay type: cell-based
[4] = test system: patient-derived AML cells; assay: Patient-derived AML xenograft (PDX) in NSGS mice, epacadostat daily gavage; assay type: in vivo, mouse; conditions: daily gavage 300 mg/kg
Method: as §1
(§3) 4-6 weeks old NSG (CDX model) or NSGS (PDX model) mice were pre-conditioned with sublethal (1.4 Gy) total-body irradiation. 24 h after, 1×10^6 OCI-AML3 or 2×10^5 human BM CD34^+ (healthy) or primary AML patient samples were injected i.v. Engraftment levels were monitored and mice were randomized after BM aspiration 3-4 weeks later and immunophenotyped by the presence of mCD45 (BioLegend Cat #103133, RRID: AB_10899570), hCD45 (BioLegend Cat #368512, RRID: AB_2566372), hCD33 (BioLegend Cat #303404, RRID: AB_314348), hCD34 (BioLegend Cat #343518, RRID: AB_1937203) cell populations. For the low-burden PDX model (kynurenine injections), mice were treated 1 week after transplant.
as §2
(§4) Cell labelling was done by i.p. injection of mice with 50 mg/kg of freshly prepared 5-Ethynyl-2′-deoxyuridine-Edu-(Cayman Chemical Company Cat #20518). After 3-4 h, BM was harvested, and human cells were negatively selected by mouse cell depletion using mouse CD45 magnetic beads (Miltenyi). The human BM cells were then stained CD45 and CD33 to identify the leukemic blast. Cell cycle/proliferation analysis was performed using the Click-iT Plus EdU Flow Cytometry Assay Kit (Invitrogen, Cat #C10420) following manufacturers' instructions. Fixable viability dye (Biolegend) was used to discriminate the death population. Single color controls were used to set compensations and fluorescence minus one control were used to set gates. Analysis was performed with FlowJo software.

[5] = test system: patient-derived AML cells; assay: Patient-derived AML xenograft in NSG mice, epacadostat chow and/or Ara-C; assay type: in vivo, mouse
Method: as §1
For the combination therapy (Epacadostat+chemotherapy) performed at the University of Pennsylvania, patient-derived AML cells were transplanted as previously reported (48). Briefly 6 weeks old NSG males were sublethally treated with busulfan (30 mg/kg) 24 h before transplant and 5×10^6 patient-derived AML cells were injected i.v. Engraftment was assessed, and mice were randomized at 7.5 weeks by BM aspirate as previously described. Randomized mice were treated with vehicle, cytosine arabinoside (Ara-C, 60 mg/kg/day×5 days i.p.), epacadostat chow (1.6 g/kg ad libitum) or both Ara-C and epacadostat chow for 3 weeks.

human AML cell lines = assay: WST-8 proliferation of human AML cell lines exposed to SAA1; assay type: cell-based; conditions: SAA1 1 μg/ml, 24-72 h, versus vehicle
Method: (§5) Treatments with recombinant proteins: human IL-1α, IL-1β, IL-6, IL-33, IL-34, CXCL1, CXCL3, CXCL5, CXCL8, CCL2, CCL20, Apo-SAA1 (all from Peprotech) and recombinant mouse SAA3 (Cusabio) were performed by o/n treatment with 50 ng/ml of the corresponding protein. SAA1 treatment of human AML cell lines was done with 1 μg/ml for 24, 48 or 72 h. Treatment of primary human MDS or AML lineage-depleted BM-MNCs was done with 5 μg/ml for 24 h. Treatment of PDX isolated human total BM cells was done with 1 μg/ml for 24 h.
(§6) Cell proliferation was performed by using Cell Counting Kit 8 (WST-8, Abcam) as per manufacturer's instructions. Briefly, 0.03×10^6 cells were seeded on tissue-culture clear bottom microplates (Corning) in their corresponding media (100 μl). When indicated, cells were treated with the indicated compounds and for the indicated time points. 10 μl/well of WST-8 solution was added and incubated for 2 h at 37° C. before measuring absorbance at 460 nm. For each experiment, the absorbance of the blank wells (growth media and vehicle/treatment) was subtracted from the values for those wells with cells.
In vitro: the indicated cell lines were incubated in reduced-serum media and exposed to SAA1 (1 μg/ml) for the 24-72 h as indicated.

AML and MDS BM MNCs = assay: Ex vivo lineage-depleted AML and MDS patient BM MNCs exposed to SAA1; assay type: cell-based, human; conditions: SAA1 5 μg/ml, 24 h
Method: as §5, §6
Ex vivo primary AML and MDS patient's samples: MNCs from fresh BM patients' aspirates were isolated as previously described and depleted from mature hematopoietic cells (lineage Cell Depletion Kit, Miltenyi Biotec Cat #130-092-211). […]

[6] = test system: human BM cells from PDX healthy or PDX AML mice; assay: Ex vivo total human BM cells isolated from PDX mice exposed to SAA1; assay type: cell-based; conditions: SAA1 1 μg/ml, 24 h
Method: as §5, §6
Ex vivo xenografts (healthy CD34^+ versus patient-derived AML): total BM from NSGS mice was depleted of mouse cells with mouse CD45 magnetic beads (Miltenyi Biotec Cat #130-052-301, RRID: AB_2877061) and negatively selected human cells used.

OCI-AML3 cells = assay: IDO1 mRNA in OCI-AML3 cells exposed to recombinant osteoblast-secreted molecules; assay type: cell-based, human; conditions: o/n treatment, 50 ng/ml
Method: as §5
(§7) RNA isolation, cDNA preparation and real-time PCR analyses were carried out following standard protocols. Total RNA from cortical bone (clean, flushed femurs, were centrifugated 20 seconds at 10.000 g's to remove any remaining BM) was extracted using TRIzol (Invitrogen) followed by RNA clean-up using PureLink RNA Mini Kit (Ambion, Invitrogen). mRNA was reversed transcribed using random hexamers RNA-to-cDNA kit (Takara). Specific forward and reverse primers were used in conjunction with PowerUp SYBR Green Master Mix (Applied Biosystems) for quantitative PCR. Expression levels were analyzed using the 2^−ΔΔCt method and were normalized for the expression of the housekeeping gene Hprt unless otherwise stated.

WEHI-3B cells = assay: Ido1 mRNA in WEHI-3B cells exposed to recombinant SAA; assay type: cell-based, mouse; conditions: o/n treatment
Method: as §5, §7

[7] = test system: leukemic blasts (hCD45+CD33+); assay: In vivo SAA1 treatment of PDX mice, Edu cell cycle analysis of leukemic blasts; design: species or system mouse
Method: SAA1 (Peprotech Cat #300-53) treatment: for short-term treatment (2 days), mice were injected intra venous (i.v.) 72 h and 48 h before harvesting. For long-term treatment (8-days), mice received daily i.v. injections. In order to get the same SAA1 concentration in blood that the one used in vitro, we used a dosage of 100 μg/kg of SAA1, diluted in 0.9% NaCl. Assuming a 20 g body weight, 2 ml total blood volume, and an even distribution in the mouse, systemic concentration of SAA1 should be approximately 1 μg/ml.
as §3, §4

[8] = test system: human AML and MDS cell lines; assay: mRNA levels in human AML and MDS cell lines exposed to SAA1; assay type: cell-based
Method: as §5, §7

WEHI-3B = assay: WST-8 proliferation of mouse WEHI-3B AML cells exposed to SAA3; assay type: cell-based; conditions: SAA3 1 μg/ml, 24-72 h, versus vehicle
[9] = day 22 after initiating therapy, Ara-C 60 mg/kg/day x 5 days, epacadostat chow 1.6 g/kg 3 weeks
[10] = SAA1 i.v., 2- and 8-day treatments

**Q.** Which results are given for `NS(=O)(=O)NCCNc1nonc1C(=NO)Nc1ccc(F)c(Br)c1` [epacadostat]?
**A.** survival (MLL/AF9 AML cells; AML-injected mice, dose not stated): increases in survival; leukemia progression (MLL/AF9 AML cells; epacadostat diet 0.8 g/kg): tendency towards a slower leukemia progression; survival (MLL/AF9 AML cells; epacadostat diet 0.8 g/kg): slight-yet significant-increase in survival; AML burden (MLL/AF9 AML cells; epacadostat diet 1.6 g/kg): significant delay in AML burden; survival (MLL/AF9 AML cells; epacadostat diet 1.6 g/kg, compared to the lower dose): significantly prolonged survival; reduction in serum Kyn levels (IDO1 [1]; MLL/AF9-injected mice, diet 1.6 g/kg): 35%; effect on the 1.5-fold-increase in systemic Kyn/Trp levels of MLL/AF9 leukemic mice (IDO1 [1]; MLL/AF9 leukemic mice, diet 0.8 g/kg): did not reduce; reduction in basal circulating Kyn/Trp levels (IDO1 [1]; no leukemia, ad libitum diet 0.8 g/kg): 54%; reduction in circulating kynurenine and tryptophan levels (IDO1 [1]; wild type mice, dose not stated): 41%; systemic toxicity [2]: did not show any obvious systemic toxicity; cell cycle progression (IDO1 [3]): impaired; kynurenine secretion (IDO1 [3]): abrogated; G0-G1 and G2-M populations of leukemic blasts [4]: remained unchanged; leukemic blasts apoptosis [4]: increased leukemic blasts apoptosis; reduction in Kyn/Trp levels in blood ([4]; 12 days): ~20%; reduction in AML BM burden ([4]; 12 days, versus vehicle): ~20%; proliferation of leukemic blasts (hCD45+CD33+) ([4]; in vivo cell cycle): less proliferative; leukemia burden in both the bone marrow and spleen ([5]; AML patient-derived xenograft models, summary statement): significantly decreases leukemia burden; leukemic burden in BM [5, 9]: decreased leukemic burden; leukemic burden in spleen [5, 9]: more pronounced effect in the spleen

B1: SAA1: recombinant human acute-phase protein serum amyloid A1 (Peprotech) (protein, UniProt P0DJI8 19-122, looked up)
Serum amyloid A-1 protein: RSFFSFLGEAFDGARDMWRAYSDMREANYIGSDKYFHARGNYDAAKRGPGGAWAAEVITDARENIQRFFGHGAEDSLADQAANEWGRSGKDPNHFRPAGLPEKY
**Q.** Which results are given for B1?
**A.** proliferation of AML cell lines (human AML cell lines): increased proliferation; IDO1 mRNA levels in patient-derived BM MNCs (AML and MDS BM MNCs): increased; proliferation of lineage-depleted AML and MDS BM MNCs (AML and MDS BM MNCs): promoted proliferation; proliferation of human cells from CD34+ healthy-injected mice [6]: unresponsive; proliferation of patient-derived cells from AML-injected mice ([6]; versus vehicle): high proliferative activity; CYP1A1 and CYP1A2 gene expression ([6]; PDX-AML versus CD34+ healthy-injected mice): only upregulated in response to SAA1 in the human BM cells isolated from the PDX-AML; IDO1 expression ([6]; PDX-AML versus PDX healthy cells): only upregulated in response to SAA1 in the PDX-AML isolated human cells; IDO1 expression in OCI-AML3 leukemic cells (OCI-AML3 cells): able to upregulate IDO1 expression; Ido1 expression in WEHI-3B cells (WEHI-3B cells): able to upregulate Ido1 expression; % of Sub-G1 apoptotic cells ([7]; 8-day treatment): reduced; proliferative rate of leukemic blasts (Edu+ cells, S-phase) ([7]; SAA1 100 μg/kg i.v., 2- and 8-day treatments): maintained and prominent increase; G0-G1 cells [7, 10]: decrease; G2-M phase [7, 10]: unvarying; increase in AML burden in the BM ([7]; completion of the 8-day treatment): 1.5 fold; IDO1 expression across human AML cell lines and MDS-L ([8]; SAA1): observed across several human AML cell lines as well as the MDS-L cell line; expression of AHR target genes ([8]; SAA1 1 μg/ml o/n): upregulated most of the main AHR targets genes

B2: SAA3: recombinant mouse SAA3 (Cusabio), murine orthologue of SAA1 (protein, UniProt P04918 19-122, looked up)
Serum amyloid A-3 protein: QRWVQFMKEAGQGSRDMWRAYSDMKKANWKNSDKYFHARGNYDAARRGPGGAWAAKVISDAREAVQKFTGHGAEDSRADQFANEWGRSGKDPNHFRPAGLPKRY
**Q.** For B2, which “proliferation of AML cell lines” value (WEHI-3B) is on record?
**A.** increased proliferation

**Q.** What about the “Ido1 expression in WEHI-3B cells” value (WEHI-3B cells) of the same molecule?
**A.** upregulated Ido1 expression
